{
  "source": "patent US9517214B2",
  "about": "“Fat-based food products” (IP Science Limited, priority 2011, dated 2016)",
  "key": {"[1]": {"tested_on": "clinically healthy volunteers with hypercholesterolaemia", "test": "Antibody inflammatory marker Px-IgG in the same trial", "assay_type": "in vivo, human", "details": "7 mg lycopene daily, capsules; Baseline; individual volunteers", "method": "(§1) Clinically Healthy Volunteers with Hypercholesterolaemia\n(§2) Commercially available butter (President, Lactalis) was melted at 40° C. The melted butter was blended with tomato oleoresin, containing 15% of lycopene (Lyc-O-Mato), in the ratio of […] of oleoresin to 30 g of the butter in a thermo-controlled mixer. The mixture was blended for 10 minutes and cooled down to the room temperature. The butter was then divided into daily 30 g portions. Butter was stored at 4° C. until use. Freshly made batches of the L-Butter were made weekly.\n(§3) Each portion of 30 g butter contained 47.1 mg of tomato oleoresin or about 7 mg of lycopene.\n(§4) The melting and mixing procedures were performed as described above using the same commercially available butter, but instead of tomato oleoresin, sunflower oil (Flora™) was used.\n(§5) 47.1 mg of tomato oleoresin was pre-dissolved in ethanol and mixed with Whey Protein as described in Richelle et al (2002) J. Nutr 132 404-408, WO01/091588 and US2002/01072992. Then the mixture was placed into gelatine capsules.\n(§6) 18 clinically healthy volunteers, 9 males and 9 females, age 45-69, were recruited for this study.\n(§7) • elevated total serum cholesterol above 200 mg/dL and/or triglycerides above 150 mg/dL, • all patients were naive for any lipid-lowering medications, • willing participate in the study. […]\n(§8) All blood samples were coded. Their lab analysis and reading of the results were blinded. […]"}, "[2]": {"tested_on": "clinically healthy volunteers with hypercholesterolaemia", "test": "Serum lipids (TC, TG, HDL, LDL) in trial of lycopene, butter and L-Butter", "assay_type": "in vivo, human", "details": "after one week of administration of 7 mg of lycopene", "method": "as §1, §2, §3, §4, §5, §6, §7, §8"}, "[3]": {"details": "daily consumption of 6-10 mg lycopene; cited from earlier work"}},
  "data": [
    {"smiles": "CC(C)=CCC/C(C)=C/C=C/C(C)=C/C=C/C(C)=C/C=C/C=C(C)/C=C/C=C(C)/C=C/C=C(\\C)CCC=C(C)C", "note": "[Lycopene]", "values": [
      {"measurement": "Px-IgG", "setting": "[1]", "value": 0.765, "unit": "U/ml"},
      {"measurement": "changes in levels of elevated cholesterol, triglycerides and markers of oxidative damage or inflammation", "setting": "[2]", "value": "not any changes"},
      {"measurement": "effect on cholesterol or other blood lipids", "setting": "[3]", "value": "no effect"}
    ]}
  ]
}
